Source: patent US11207366B2, “Traditional Chinese medicine composition comprising dried tangerine peels and dark tea for treating diabetes and preparation method thereof” (priority 2017, dated 2021)

Test system: diabetes patients
Test: Clinical experiment examples: fasting blood glucose of diabetes patients
Assay type: in vivo, human
Source text: In another preferred embodiment of the present invention, the tea bricks after the above-mentioned about 2-year aging time are pulled apart and left in the air for about 30 days for oxidization. After the loosen tea leaves are oxidized for about 30 days, they are smashed into small particles or powders. And then another 5 parts (by weight) to 15 parts (by weight) of blended tangerine peels are taken and smashed into particles or powders. The above-mentioned tangerine peels, in particles or powders form, are blended into the above-mentioned black teas, in particles or powders form. Then the composition can be used as the traditional Chinese medical tea drinks for treating diabetes. General patients can drink the tea once or twice a day, each time 5-10 grams. Severe patients can drink twice a day, each time 10-20 grams.
Clinical Experiment Examples
Oct. 23, 2016: fasting blood glucose was 8.9 mml. The patient administrated metformin, three times a day, one tablet each time before meals.
Oct. 29, 2016: the value of fasting blood glucose was 6.8 mml, and the traditional Chinese medicine tea drinks of the present invention were administrated twice a day, each time 5 grams of the tea, with the continuation of administration of the metformin.
Subject: The patient is a person, who has a long history of diabetes. Before drinking the traditional Chinese medicine tea drinks of the present invention, the subject administrated hypoglycemic agents (metformin) for long before each meal, each time 2 tablets. Test results (measured on empty stomach at 7 o'clock in the morning)
From the above case, it can be seen that only administration of metformin to decrease blood glucose would not lead to a good controlling effect, and the average value of blood glucose was 12.3 mml with a large fluctuation that varies from the 8.5 mml to the highest 19.5 mml After drinking the traditional Chinese medicine tea drinks of the present invention (brewing 1 to 2 bags every day), the average value of blood glucose was 8.6 mml with a steady trend where the values were fluctuated within 7-10 mml without the occurrence of very high measured results.

**Q.** `CN(C)C(=N)N=C(N)N` [metformin] was tested. Which fasting blood glucose (Case 1, Oct. 23, 2016, metformin three times a day, one tablet before meals (first day reported)) did it give?
**A.** 8.9 mml

**Q.** What about the fasting blood glucose (Case 1, Oct. 24, 2016, metformin only) of the same compound?
**A.** 7.5 mml

**Q.** And the fasting blood glucose (Case 1, Oct. 25, 2016, metformin only)?
**A.** 7.4 mml

**Q.** What about the fasting blood glucose (Case 1, Oct. 26, 2016, metformin only, big dinner and wine the evening before) of the same compound?
**A.** 8.3 mml

**Q.** And the fasting blood glucose (Case 1, Oct. 29, 2016, on metformin, day the tea drinks (twice a day, 5 grams) were started)?
**A.** 6.8 mml

**Q.** What about the “measured average value of blood glucose” value (Case 1, metformin, 9 days from October 20 to October 29) of the same compound?
**A.** 7.5 mml

**Q.** What about the “blood glucose measured on empty stomach at 7 o'clock in the morning” value (from here on “blood glucose measured on empty stomach”) (Case 2, metformin only (2 tablets before each meal), Aug. 24, 2016) of the same compound?
**A.** 9.4 mml

**Q.** And the “blood glucose measured on empty stomach” value (Case 2, metformin only, Aug. 28, 2016)?
**A.** 9.9 mml

**Q.** And the “blood glucose measured on empty stomach” value (Case 2, metformin only, Dec. 2, 2016)?
**A.** 11.8 mml

**Q.** What about the “blood glucose measured on empty stomach” value (Case 2, metformin only, Dec. 9, 2016) of the same compound?
**A.** 12.6 mml

**Q.** What about the “blood glucose measured on empty stomach” value (Case 2, metformin only, Dec. 14, 2016) of the same compound?
**A.** 11.9 mml

**Q.** And the “blood glucose measured on empty stomach” value (Case 2, metformin only, Dec. 18, 2016)?
**A.** 12.3 mml

**Q.** And the “blood glucose measured on empty stomach” value (Case 2, metformin only, Dec. 24, 2016)?
**A.** 12.5 mml

**Q.** What about the “blood glucose measured on empty stomach” value (Case 2, metformin only, Dec. 28, 2016) of the same compound?
**A.** 14.7 mml

**Q.** And the “blood glucose measured on empty stomach” value (Case 2, metformin only, Jan. 2, 2017)?
**A.** 13.3 mml

**Q.** And the “blood glucose measured on empty stomach” value (Case 2, metformin only, Jan. 6, 2017)?
**A.** 11.8 mml

**Q.** And the “blood glucose measured on empty stomach” value (Case 2, metformin only, Nov. 1, 2016)?
**A.** 14.5 mml

**Q.** What about the “blood glucose measured on empty stomach” value (Case 2, metformin only, Nov. 5, 2016) of the same compound?
**A.** 13.4 mml

**Q.** And the “blood glucose measured on empty stomach” value (Case 2, metformin only, Nov. 10, 2016)?
**A.** 11.1 mml

**Q.** What about the “blood glucose measured on empty stomach” value (Case 2, metformin only, Nov. 13, 2016) of the same compound?
**A.** 13 mml

**Q.** And the “blood glucose measured on empty stomach” value (Case 2, metformin only, Nov. 18, 2016)?
**A.** 14 mml

**Q.** And the “blood glucose measured on empty stomach” value (Case 2, metformin only, Nov. 20, 2016)?
**A.** 8.5 mml

**Q.** What about the “blood glucose measured on empty stomach” value (Case 2, metformin only, Nov. 27, 2016) of the same compound?
**A.** 9.4 mml

**Q.** What about the “blood glucose measured on empty stomach” value (Case 2, metformin only, Oct. 1, 2016) of the same compound?
**A.** 11 mml

**Q.** What about the “blood glucose measured on empty stomach” value (Case 2, metformin only, Oct. 4, 2016) of the same compound?
**A.** 12.7 mml

**Q.** And the “blood glucose measured on empty stomach” value (Case 2, metformin only, Oct. 11, 2016)?
**A.** 15.9 mml

**Q.** What about the “blood glucose measured on empty stomach” value (Case 2, metformin only, Oct. 24, 2016) of the same compound?
**A.** 19.5 mml

**Q.** What about the “blood glucose measured on empty stomach” value (Case 2, metformin only, Sep. 3, 2016) of the same compound?
**A.** 12.5 mml

**Q.** What about the “blood glucose measured on empty stomach” value (Case 2, metformin only, Sep. 11, 2016) of the same compound?
**A.** 8.7 mml

**Q.** What about the “blood glucose measured on empty stomach” value (Case 2, metformin only, Sep. 23, 2016) of the same compound?
**A.** 11.6 mml

**Q.** And the “average value of blood glucose” value (Case 2, only administration of metformin)?
**A.** 12.3 mml
